Measurements as given in publication PMC7006816, “Human β-Defensin 2 Mediated Immune Modulation as Treatment for Experimental Colitis” (Frontiers in Immunology, 2020).
Where no end group is shown, it is not given here.

Assays:
[1] = test system: BALB/cByJ mice with TNBS colitis; experiment: TNBS colitis model; assay type: in vivo, mouse; details: hBD2 0.1 mg/kg s.c. once a day
Description: The TNBS colitis study was performed by Farma-Cros Ibérica according to directive 86/609 EEC and approved by Novozymes science ethics committee. Male BALB/cByJ mice were used (Janvier) and each group consisted of 15 animals. Animal allocation to all experimental groups was done in a randomized manner. Colitis was induced on day 0 by intracolonic (distal) administration of trinitrobenzene sulfonic acid (TNBS), 1 mg/mouse in 50% ethanol under mild anesthesia (ketamine/xylazine). Treatment of the animals started on day 0 after induction of colitis. All compounds were applied s.c. Mice received PBS (TNBS control), Prednisolone (10 mg/kg), or hBD2 0.1 mg/kg), respectively. In the TNBS control group as well as in the Prednisolone group, 2 animals had to be sacrificed before the end of the experiment. All other animals were sacrificed on day 10. Daily clinical assessment was carried out to calculate a validated clinical DAI ranging from 0 to 4 according to the following parameters: body weight loss, presence or absence of rectal bleeding, stool consistency.
Sections of the colon were taken from each animal and preserved in neutral buffered formaline for subsequent histological analysis. Sections were stained using haematoxylin and eosin for further scoring.

[2] = test system: human primary PBMC's of ulcerative colitis patients; experiment: Stimulation of PBMCs of ulcerative colitis patients with LPS, cytokine release; assay type: cell-based; details: LPS 20 pg/ml; 10 μg/mL hBD2; colitis patients n = 4; LegendPlex
Description: Heparinized blood was diluted 1/1 v/v with RPMI (Gibco) and was subjected to Ficoll-Paque Plus (GE healthcare) density centrifugation within 2 h of drawing. Plasma was collected from the top from individual donors and was kept on ice until it was used at 2% in the culture medium (autologous culture medium). Isolated PBMC's were re-suspended in autologous culture medium and seeded in 96-well culture plates with 115.500 cells per well (Figure 1) or 200.000 cells per well (Figure 2) in a total of 200 μl. PBMC's from the same donor were stimulated with 100, 10 or 1 μg/ml of hBD2 either alone or together with 20 pg/ml lipopolysaccharide (LPS) (E. coli, O111:B4, Sigma L4391) or with 0.3 μg/ml Pam3CSK4 (InvivoGen). The supernatants were collected after incubation at 37°C for 24 h, and stored at −80°C until cytokine measurement.
The experiment in Figure 2 was performed with 8 subjects (4 controls and 4 colitis patients) to study the impact of disease status on treatment efficacy. Clinical status of these subjects were subtotal remission (Simponi and Salofalk), remission (Vedolizumab), mild disease (Infliximab, Salofalk, and Prednisolon), and moderate disease (Vedolizumab). PBMCs from these subjects were analyzed for IL-1b, TNF-a, IFN-g, IL-12, and IL-23 expression using a human inflammation cytometric bead array (LegendPlex Biolegends) according to manufacturer's instructions.

murine BM-DC's = experiment: Flow cytometry of BM-DCs (p-NF-κB, p-CREB, MHCII, CD86); assay type: cell-based, mouse; details: LPS + hBD2 100 μg/ml, flow cytometry, n = 6
Description: BM-DC's were generated using granulocyte-macrophage colony-stimulating factor (GM-CSF) and RPMI-1640 medium (Merck) supplemented with 10% fetal calf serum (FBS; Life Technologies), 2 mM glutamine (Thermo Fisher), 100 U/ml penicillin/streptomycin (Gibco), 50 μM 2-mercaptoethanol (Roth), 1 mM sodium pyruvate (Biochrome), and 1x non-essential amino acids (Biochrome) as previously described ([28]). Shortly, 2 × 10^6 bone marrow cells flushed from the tibias and femurs of C57BL/6 mice were seeded in dishes containing 200 U/ml GM-CSF. After 3 days extra medium containing GM-CSF was added to the cells and on day 6 half of the medium was replaced by fresh […] containing GM-CSF. After 7 or 8 days slightly attached cells were harvested. Female C57BL/6JolaHsd mice were purchased from Janvier (St. Berthevin Cedex, France). Animal experiments were performed in strict accordance with the German regulations of the Society for Laboratory Animal Science (GV-SOLAS) and the European Health Law of the Federation of Laboratory Animal Science Associations (FELASA). The protocol was approved by the Regierungspräsidium Tübingen (Anzeige 09.01.2014).
2 × 10^5 murine BM-DC's were seeded in 96-well round bottom plates and treated as described above. Cells were removed from the plate using Accutase (Sigma-Aldrich) and stained for 20 min at room temperature with Zombie Aqua (Biolegend) to exclude dead cells and extracellular antibodies against CD11c-APC (N418) (Miltenyi), MHCII-FITC (M5/114.15.2) (Miltenyi) and CD86-BV421 (GL-1) (Biolegend). For p-CREB staining cells were fixed and permeabilized with Foxp3 Staining Buffer Set (eBioscience) and stained with primary antibody phosphor-CREB mAb (Ser133; clone 87G3) (Cell Signaling) for 30 min in the dark at room temperature followed by secondary goat anti-rabbit IgG-DyLight™649 (Jackson ImmunoResearch) for 15 min at 4°C. To detect intracellular p-NF-κB BM-DCs were fixed with 2% paraformaldehyde (VWR) in PBS, permeabilized with 90% freezing methanol (Applichem) and stained with the primary antibodies to phosphor-NF-κB p65 (93H1) (Cell Signaling) for 60 min in the dark at room temperature followed by goat anti-rabbit IgG-PE-Cy7 (Santa Cruz Biotechnology) for 15 min at 4°C. PBS with 0,5% bovine serum albumin (Biomol) was used for all incubations and washing steps. At least 50,000 cells were acquired using a Canto-II flow cytometer (BD […]) with DIVA software (BD Biosciences) and were further analyzed using FlowJo 10.5 software (Tree Star).

For “human β-defensin 2 (GIGDPVTCLKSGAICHPVFCPRRYKQIGTCGLPGTKCCKKP; not fully specified; ends and bridges not checked) [hBD2, Recombinant human β-defensin 2 expressed in E. coli as his-tagged thioredoxin fusion, cleaved and purified, natural tertiary structure]”, which “Microscopic analysis of the colon (mucosa)” value ([1]; TNBS) is on record?
The value was “nearly normal mucosa”.

And the Weight change ([1]; TNBS 1 mg/mouse, n = 15)?
The Weight change was “trended toward increased weight gain from day 1–7”.

And the Colon weight ([1]; TNBS, n = 15)?
Its Colon weight is “significantly reduced colon weight”.

And the “Macroscopic score of colon” value ([1]; TNBS, n = 15)?
The value was “significantly improved”.

And the “Microscopic score of colon” value ([1]; TNBS, n = 15)?
The value was “significantly improved”.

What about the “Proinflammatory immune response (IL-1β, TNF-α, INF-γ, IL-23, IL-12p70 release)” value [2] of the same substance?
Its value is “successfully attenuated the proinflammatory immune response”.

What about the CREB phosphorylation (murine BM-DC's; 60 min) of the same substance?
The CREB phosphorylation was “increase in CREB phosphorylation”.

What about the NF-κB phosphorylation (murine BM-DC's; 60 min) of the same substance?
Its NF-κB phosphorylation is “reduced NF-κB phosphorylation”.

What about the “Maturation status (MHCII and CD86)” value (murine BM-DC's) of the same substance?
Its value is “reduced maturation status”.
